The source made the active and inactive calls. The rule behind the calls is not given here.
What was measured:
Format in all cases: functional
Staphylococcus aureus [1] = experiment: Antibacterial activity against Staphylococcus aureus assessed as growth inhibition at 600 ug/ml by NCCLS […] method; settings: read-out: IZ
Bacillus pumilus [2] = experiment: Antibacterial activity against Bacillus pumilus assessed as growth inhibition at 900 ug/ml by NCCLS […] method; settings: read-out: IZ
Bacillus pumilus [3] = experiment: Antibacterial activity against Bacillus pumilus assessed as growth inhibition at 600 ug/ml by NCCLS […] method; settings: read-out: IZ
Priestia megaterium [4] = experiment: Antibacterial activity against Bacillus megaterium assessed as growth inhibition at 900 ug/ml by NCCLS […] method; settings: for zone of inhibition at 900 µg/mL: read-out: IZ
Priestia megaterium [5] = experiment: Antibacterial activity against Bacillus megaterium assessed as growth inhibition at 600 ug/ml by NCCLS […] method; settings: for zone of inhibition at 600 µg/mL: read-out: IZ
Bacillus subtilis [6] = experiment: Antibacterial activity against Bacillus subtilis assessed as growth inhibition at 900 ug/ml by NCCLS […] method; settings: read-out: IZ
Bacillus subtilis [7] = experiment: Antibacterial activity against Bacillus subtilis assessed as growth inhibition at 600 ug/ml by NCCLS […] method; settings: read-out: IZ
Klebsiella aerogenes [8] = experiment: Antibacterial activity against Enterobacter aerogenes assessed as growth inhibition at 900 ug/ml by NCCLS […] method; settings: read-out: IZ
Klebsiella aerogenes [9] = experiment: Antibacterial activity against Enterobacter aerogenes assessed as growth inhibition at 600 ug/ml by NCCLS […] method; settings: read-out: IZ
Klebsiella pneumoniae [10] = experiment: Antibacterial activity against Klebsiella pneumoniae assessed as growth inhibition at 900 ug/ml by NCCLS […] method; settings: read-out: IZ
Klebsiella pneumoniae [11] = experiment: Antibacterial activity against Klebsiella pneumoniae assessed as growth inhibition at 600 ug/ml by NCCLS […] method; settings: read-out: IZ
Proteus mirabilis [12] = experiment: Antibacterial activity against Proteus mirabilis assessed as growth inhibition at 900 ug/ml by NCCLS […] method; settings: read-out: IZ
Proteus mirabilis [13] = experiment: Antibacterial activity against Proteus mirabilis assessed as growth inhibition at 600 ug/ml by NCCLS […] method; settings: read-out: IZ
Proteus vulgaris [14] = experiment: Antibacterial activity against Proteus vulgaris assessed as growth inhibition at 900 ug/ml by NCCLS […] method; settings: read-out: IZ
Proteus vulgaris [15] = experiment: Antibacterial activity against Proteus vulgaris assessed as growth inhibition at 600 ug/ml by NCCLS […] method; settings: read-out: IZ
Escherichia coli [16] = experiment: Antibacterial activity against Escherichia coli assessed as growth inhibition at 900 ug/ml by NCCLS […] method; settings: read-out: IZ
Fusarium oxysporum [17] = experiment: Antifungal activity against Fusarium oxysporum assessed as growth inhibition at 900 ug/ml; settings: for zone of inhibition at 900 µg/mL: read-out: IZ
Fusarium oxysporum [18] = experiment: Antifungal activity against Fusarium oxysporum assessed as growth inhibition at 600 ug/ml; settings: for zone of inhibition at 600 µg/mL: read-out: IZ
Fusarium oxysporum [19] = experiment: Antifungal activity against Fusarium oxysporum assessed as growth inhibition at 300 ug/ml; settings: for zone of inhibition at 300 µg/mL: read-out: IZ
Candida albicans [20] = experiment: Antifungal activity against Candida albicans assessed as growth inhibition at 1200 ug/ml; settings: read-out: IZ
Candida albicans [21] = experiment: Antifungal activity against Candida albicans assessed as growth inhibition at 900 ug/ml; settings: read-out: IZ
Candida albicans [22] = experiment: Antifungal activity against Candida albicans assessed as growth inhibition at 600 ug/ml; settings: read-out: IZ
Candida albicans [23] = experiment: Antifungal activity against Candida albicans assessed as growth inhibition at 300 ug/ml; settings: read-out: IZ
Streptococcus pyogenes [24] = experiment: Antibacterial activity against Streptococcus pyogenes assessed as growth inhibition at 600 ug/ml by NCCLS […] method; settings: read-out: IZ
Streptococcus pyogenes [25] = experiment: Antibacterial activity against Streptococcus pyogenes assessed as growth inhibition at 900 ug/ml by NCCLS […] method; settings: read-out: IZ
Staphylococcus aureus [26] = experiment: Antibacterial activity against Staphylococcus aureus assessed as growth inhibition at 900 ug/ml by NCCLS […] method; settings: read-out: IZ
Escherichia coli [27] = experiment: Antibacterial activity against Escherichia coli assessed as growth inhibition at 600 ug/ml by NCCLS […] method; settings: read-out: IZ
Colletotrichum falcatum [28] = experiment: Antifungal activity against Glomerella tucumanensis assessed as growth inhibition at 1200 ug/ml; settings: for zone of inhibition at 1200 µg/mL: read-out: IZ
Colletotrichum falcatum [29] = experiment: Antifungal activity against Glomerella tucumanensis assessed as growth inhibition at 900 ug/ml; settings: for zone of inhibition at 900 µg/mL: read-out: IZ
Colletotrichum falcatum [30] = experiment: Antifungal activity against Glomerella tucumanensis assessed as growth inhibition at 600 ug/ml; settings: for zone of inhibition at 600 µg/mL: read-out: IZ
Colletotrichum falcatum [31] = experiment: Antifungal activity against Glomerella tucumanensis assessed as growth inhibition at 300 ug/ml; settings: for zone of inhibition at 300 µg/mL: read-out: IZ
Exserohilum rostratum [32] = experiment: Antifungal activity against Setosphaeria rostrata assessed as growth inhibition at 1200 ug/ml; settings: read-out: IZ
Exserohilum rostratum [33] = experiment: Antifungal activity against Setosphaeria rostrata assessed as growth inhibition at 900 ug/ml; settings: read-out: IZ
Exserohilum rostratum [34] = experiment: Antifungal activity against Setosphaeria rostrata assessed as growth inhibition at 600 ug/ml; settings: read-out: IZ
Exserohilum rostratum [35] = experiment: Antifungal activity against Setosphaeria rostrata assessed as growth inhibition at 300 ug/ml; settings: read-out: IZ
Fusarium oxysporum [36] = experiment: Antifungal activity against Fusarium oxysporum assessed as growth inhibition at 1200 ug/ml; settings: for zone of inhibition at 1200 µg/mL: read-out: IZ

Row | SMILES | zone of inhibition at 600 µg/mL (Staphylococcus aureus [1]) [mm] | zone of inhibition at 900 µg/mL (Bacillus pumilus [2]) [mm] | zone of inhibition at 600 µg/mL (Bacillus pumilus [3]) [mm] | zone of inhibition at 900 µg/mL (Bacillus subtilis [6]) [mm] | zone of inhibition at 600 µg/mL (Bacillus subtilis [7]) [mm] | zone of inhibition at 900 µg/mL (Klebsiella aerogenes [8]) [mm] | zone of inhibition at 600 µg/mL (Klebsiella aerogenes [9]) [mm] | zone of inhibition at 900 µg/mL (Klebsiella pneumoniae [10]) [mm] | zone of inhibition at 600 µg/mL (Klebsiella pneumoniae [11]) [mm] | zone of inhibition at 900 µg/mL (Proteus mirabilis [12]) [mm] | zone of inhibition at 600 µg/mL (Proteus mirabilis [13]) [mm] | zone of inhibition at 900 µg/mL (Proteus vulgaris [14]) [mm] | zone of inhibition at 600 µg/mL (Proteus vulgaris [15]) [mm] | zone of inhibition at 900 µg/mL (Escherichia coli [16]) [mm] | zone of inhibition at 1200 µg/mL (Candida albicans [20]) [mm] | zone of inhibition at 900 µg/mL (Candida albicans [21]) [mm] | zone of inhibition at 600 µg/mL (Candida albicans [22]) [mm] | zone of inhibition at 300 µg/mL (Candida albicans [23]) [mm] | zone of inhibition at 600 µg/mL (Streptococcus pyogenes [24]) [mm] | zone of inhibition at 900 µg/mL (Streptococcus pyogenes [25]) [mm] | further results
1 | COc1ccc2c(OCCCN3CCN(Cc4ccc[nH]4)CC3)c(-c3ccccc3)c(=O)oc2c1 | 14.8 | 15.5 | 7.49 | 7.87 | 4.21 | 8.9 | 4.78 | 8.12 | 4.21 | 19.4 | 10.9 | 16 | 8.12 | 6.04 | 27 | 13.9 | 7.77 | 4.02 | 9.1 | 18 | zone of inhibition at 900 µg/mL (Priestia megaterium [4]): 12.4 mm; zone of inhibition at 600 µg/mL (Priestia megaterium [5]): 6.32 mm; zone of inhibition at 900 µg/mL (Fusarium oxysporum [17]): 20 mm; zone of inhibition at 600 µg/mL (Fusarium oxysporum [18]): 10.2 mm; zone of inhibition at 300 µg/mL (Fusarium oxysporum [19]): 5.34 mm; zone of inhibition at 900 µg/mL (Staphylococcus aureus [26]): 25.3 mm; zone of inhibition at 600 µg/mL (Escherichia coli [27]): 3.22 mm; zone of inhibition at 1200 µg/mL (Colletotrichum falcatum [28]): 19.6 mm; zone of inhibition at 900 µg/mL (Colletotrichum falcatum [29]): 10.1 mm; zone of inhibition at 600 µg/mL (Colletotrichum falcatum [30]): 5.84 mm; zone of inhibition at 300 µg/mL (Colletotrichum falcatum [31]): 3.02 mm; zone of inhibition at 1200 µg/mL (Exserohilum rostratum [32]): 25.3 mm; zone of inhibition at 900 µg/mL (Exserohilum rostratum [33]): 13.9 mm; zone of inhibition at 600 µg/mL (Exserohilum rostratum [34]): 7.01 mm; zone of inhibition at 300 µg/mL (Exserohilum rostratum [35]): 3.54 mm; zone of inhibition at 1200 µg/mL (Fusarium oxysporum [36]): 31.6 mm
2 | COc1ccc2c(OCCCN3CCN(Cc4ccc(Cl)cc4Cl)CC3)c(-c3ccccc3)c(=O)oc2c1 | 6.5 | 4.28 | 2.01 | 12.1 | 9.02 | 8.08 | 4.25 | 14 | 8.82 | 9.01 | 4.91 | 8.04 | 4.02 | 14.1 | 17.2 | 9.56 | 4.89 | 2.01 | 3.27 | 6.25 | zone of inhibition at 900 µg/mL (Priestia megaterium [4]): 12 mm; zone of inhibition at 600 µg/mL (Priestia megaterium [5]): 6.3 mm; zone of inhibition at 900 µg/mL (Fusarium oxysporum [17]): 13.6 mm; zone of inhibition at 600 µg/mL (Fusarium oxysporum [18]): 6.25 mm; zone of inhibition at 300 µg/mL (Fusarium oxysporum [19]): 3.08 mm; zone of inhibition at 900 µg/mL (Staphylococcus aureus [26]): 12 mm; zone of inhibition at 600 µg/mL (Escherichia coli [27]): 7.02 mm; zone of inhibition at 1200 µg/mL (Colletotrichum falcatum [28]): 26.4 mm; zone of inhibition at 900 µg/mL (Colletotrichum falcatum [29]): 13.8 mm; zone of inhibition at 600 µg/mL (Colletotrichum falcatum [30]): 6.5 mm; zone of inhibition at 300 µg/mL (Colletotrichum falcatum [31]): 3.25 mm; zone of inhibition at 1200 µg/mL (Exserohilum rostratum [32]): 23.2 mm; zone of inhibition at 900 µg/mL (Exserohilum rostratum [33]): 11.6 mm; zone of inhibition at 600 µg/mL (Exserohilum rostratum [34]): 5.76 mm; zone of inhibition at 300 µg/mL (Exserohilum rostratum [35]): 2.89 mm; zone of inhibition at 1200 µg/mL (Fusarium oxysporum [36]): 25.8 mm
3 | COc1ccc2c(OCCCN3CCN(Cc4ccccc4)CC3)c(-c3ccccc3)c(=O)oc2c1 | 7.89 | 4.21 | 2.27 | 12 | 6.56 | 7.53 | 3.8 | 4.98 | 2.56 | 11.3 | 5.55 | 12.8 | 6.54 | 5.76 | 22.3 | 12 | 5.43 | 2.87 | 6.54 | 11.9 | growth inhibition (GI) (Priestia megaterium [4]): inactive; growth inhibition (GI) (Priestia megaterium [5]): inactive; growth inhibition (GI) (Fusarium oxysporum [17]): inactive; growth inhibition (GI) (Fusarium oxysporum [18]): inactive; growth inhibition (GI) (Fusarium oxysporum [19]): inactive; zone of inhibition at 900 µg/mL (Staphylococcus aureus [26]): 11.2 mm; zone of inhibition at 600 µg/mL (Escherichia coli [27]): 2.98 mm; growth inhibition (GI) (Colletotrichum falcatum [28]): inactive; growth inhibition (GI) (Colletotrichum falcatum [29]): inactive; growth inhibition (GI) (Colletotrichum falcatum [30]): inactive; growth inhibition (GI) (Colletotrichum falcatum [31]): inactive; zone of inhibition at 1200 µg/mL (Exserohilum rostratum [32]): 24.6 mm; zone of inhibition at 900 µg/mL (Exserohilum rostratum [33]): 15.8 mm; zone of inhibition at 600 µg/mL (Exserohilum rostratum [34]): 8.56 mm; zone of inhibition at 300 µg/mL (Exserohilum rostratum [35]): 4.25 mm; growth inhibition (GI) (Fusarium oxysporum [36]): inactive
